Laboratory results taken from US5086176A, “Tricyclic fused adenine derivatives” (priority 1991, dated 1992).
Like-named read-outs stand apart in the source and are kept apart here.

What was measured:
[1] = test system: effects of adenosine analogs on heart rate and blood pressure; conditions: heart rate compared with blood pressure; cited from earlier work
A-1 receptors = conditions: cited from earlier work
Adenosine A-1 receptor [2] = biological target: T1, Adenosine A-1 receptor (Rattus norvegicus, UniProt P25099); experiment: Test for affinity for brain adenosine A-1 receptor binding sites ([3H]cyclohexyladenosine displacement); conditions: ratio of A-2 Ki to A-1 Ki
T1 sequence (P25099 1-326): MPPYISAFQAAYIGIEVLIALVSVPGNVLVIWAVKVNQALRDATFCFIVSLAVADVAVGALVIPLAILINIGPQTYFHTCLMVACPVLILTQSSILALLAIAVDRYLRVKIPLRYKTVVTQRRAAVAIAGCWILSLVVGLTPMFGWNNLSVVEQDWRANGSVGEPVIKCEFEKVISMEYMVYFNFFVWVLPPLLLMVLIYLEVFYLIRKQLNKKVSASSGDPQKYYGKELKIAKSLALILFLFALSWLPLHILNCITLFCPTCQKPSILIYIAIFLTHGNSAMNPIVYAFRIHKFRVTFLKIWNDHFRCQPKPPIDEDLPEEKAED

Adenosine A-1 receptor [3] = biological target: T1, Adenosine A-1 receptor
A-2 receptors = conditions: rank order; cited from earlier work

## CCCn1c(=O)c2[nH]c(-c3ccc(OCC(=O)NCCN)cc3)nc2n(CCC)c1=O [XAC]
[1]
  antagonizing the effects of adenosine analogs on heart rate versus blood pressure: much more potent in antagonizing the effects of adenosine analogs on heart rate than on blood pressure
A-1 receptors; A-1 Ki compared with Ki at A-2 receptors of the brain slice assay
  higher affinity for A-1 adenosine receptors: 40 fold

## CCCOC1=Nc2c(cnn2-c2ccccc2)C2=N[C@H](C)[C@@H](c3ccccc3)N12 [Compound 7, (2R-trans)-2,7-dihydro-2-methyl-3,7-diphenyl-5-propoxy-3H-Imidazo-[1,2-c]pyrazolo[4,3-s]pyrimidine]
Adenosine A-1 receptor [2]
  A-2 Ki/A-1 Ki: 1.17

## C1=Nc2c(cnn2-c2ccccc2)C2=N[C@H](Cc3ccccc3)CN12 [Compound 3, (R)-2,7-dihydro-7-phenyl-2-(phenylmethyl)-3H-imidazo-[1,2-c]pyrazolo-[4,3-e]pyrimidine]
Adenosine A-1 receptor [2]
  A-2 Ki/A-1 Ki: 13.20

## C1=Nc2c(ncn2-c2ccccc2)C2=N[C@H](Cc3ccccc3)CN12 [Compound 6, (R)-7,8-dihydro-3-phenyl-8-(phenylmethyl)-3H-diimidazo[1,2-c: 4',5'-e]pyrimidine]
Adenosine A-1 receptor [3]
  A-2 Ki/A-1 Ki: 16.40

## CCCn1c(=O)c2[nH]c(-c3ccc(OCC(=O)O)cc3)nc2n(CCC)c1=O [XCC]
A-1 receptors; A-1 versus A-2, in vitro
  adenosine receptor selectivity: non-selective

## Nc1nc(Cl)nc2c1ncn2[C@@H]1O[C@H](CO)[C@@H](O)[C@H]1O [2-chloroadenosine]
A-2 receptors
  order of potency at A-2 receptors: NECA>2-chloroadenosine>R-PIA>CHA

## CCNC(=O)[C@H]1O[C@@H](n2cnc3c(N)ncnc32)[C@H](O)[C@@H]1O [NECA, N-5'-ethylcarboxamidoadenosine]
A-2 receptors
  order of potency at A-2 receptors: NECA>2-chloroadenosine>R-PIA>CHA
